This passage reports IC50 results from patent US7875633B2, “Phenylpyridone derivative” (Banyu Pharmaceutical Co., Ltd., priority 2005, dated 2011).

T1 sequence (Q99705 whole entry): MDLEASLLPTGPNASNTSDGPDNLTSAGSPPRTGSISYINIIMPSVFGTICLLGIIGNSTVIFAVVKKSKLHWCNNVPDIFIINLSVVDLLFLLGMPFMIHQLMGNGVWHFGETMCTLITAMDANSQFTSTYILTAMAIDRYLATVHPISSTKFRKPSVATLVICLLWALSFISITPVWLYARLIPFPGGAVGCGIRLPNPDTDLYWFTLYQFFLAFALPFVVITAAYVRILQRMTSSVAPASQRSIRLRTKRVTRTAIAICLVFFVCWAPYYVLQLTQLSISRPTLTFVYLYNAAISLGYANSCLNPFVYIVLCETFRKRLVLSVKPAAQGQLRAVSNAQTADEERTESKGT

The assay addresses T1, human MCH-1R (Homo sapiens, UniProt Q99705).
T1 construct: expressed in transfected cells; host or cells: CHO-K1 (American Type Culture Collection); membrane samples
In words: MCH binding inhibition test. Conditions: membranes of MCH-1R expressing CHO-K1 cells, 50 pM [125I]MCH, 25° C., one hour, pH 7.4; read-out: IC50 (50% inhibition concentration to the specific [125I]MCH binding). The source says:
Pharmacological Test Example 1 (MCH Binding Inhibition Test)
A human MCH-1R encoding cDNA sequence [FEBS Letters, Vol. 398, 253 (1996); Biochimica et Biophisica Acta, Vol. 1401, 216 (1998)] was cloned to a plasmid vector pEF/myc/cyto (Invitrogen Corporation). The obtained expression vector was transfected to host cells CHO-K1 (American Type Culture Collection) using Lipofectamine Plus Reagent (Life Technology Inc.) to provide MCH-1R expression cells.
Membrane samples prepared from the MCH-1R expression cells were incubated with each test compound and 50 pM of [^125I]MCH (NEN Co.), in an assay buffer (50 mM Tris buffer comprising 10 mM magnesium chloride, 2 mM ethylenediamine tetraacetate, 0.01% bacitracin and 0.2% bovine serum albumin; pH 7.4) at 25° C. for an hour, followed by filtration through a glass filter GF/C (Wattman Co.). After washing the glass filter with 50 mM Tris buffer (pH 7.4) comprising 10 mM magnesium chloride, 2 mM ethylenediamine tetraacetate and 0.04% Tween-20, the radioactive activity on the glass filter was measured. The non-specific binding was measured in the presence of 1 μM human MCH and 50% inhibition concentration (IC50 value) of each test compound to the specific [^125I]MCH binding was determined.
As for `CCN(C)C/C=C/c1ccc(-n2ccc(OCc3ccc(Cl)cc3)cc2=O)cc1` [Example 3, 4-[(4-Chlorobenzyl)oxy]-1-(4-{(1E)-3-[ethyl(methyl)amino]-1-propen-1-yl}phenyl)pyridin-2(1H)-one], the IC50 turned out to be 1.5 nM.

As for `CCCCN(C)C/C=C/c1ccc(-n2ccc(OCc3ccc(Cl)cc3)cc2=O)cc1` [Example 6, 4-[(4-Chlorobenzyl)oxy]-1-(4-{(1E)-3-[butyl(methyl)amino]-1-propen-1-yl}phenyl)pyridin-2(1H)-one], the IC50 worked out at 0.93 nM.

As to `O=c1cc(OCc2ccc(F)cc2)ccn1-c1ccc(NCCN2CCCC2)cc1` [Example 14, 4-[(4-Fluorobenzyl)oxy]-1-{4-[(2-pyrrolidin-1-ylethyl)amino]phenyl}pyridin-2(1H)-one], the IC50 amounted to 4.5 nM.

With `CC(C)N(C)C/C=C/c1ccc(-n2ccc(OCc3ccc(Cl)cc3)cc2=O)cc1` [Example 5, 4-[(4-Chlorobenzyl)oxy]-1-(4-{(1E)-3-[isopropyl(methyl)amino]-1-propen-1-yl]phenyl}pyridin-2(1H)-one], the IC50 was determined as 1.4 nM.

Regarding `O=c1cc(OCc2ccc(Cl)cn2)ccn1-c1ccc(CCNC2CCCC2)cc1` [Example 37, 4-[(5-Chloropyridin-2-yl)methoxy]-1-{4-[(2-cyclopentylamino)ethyl]phenyl}pyridin-2(1H)-one], the IC50 is 4.6 nM.

Turning to `CCCN(C)C/C=C/c1ccc(-n2ccc(OCc3ccc(Cl)cc3)cc2=O)cc1` [Example 4, 4-[(4-Chlorobenzyl)oxy]-1-(4-{(1E)-3-[propyl(methyl)amino]-1-propen-1-yl}phenyl)pyridin-2(1H)-one], the IC50 is 1.2 nM.

On to `CN(C)C/C=C/c1ccc(-n2ccc(OCc3ccc(Cl)cc3)cc2=O)cc1` [Example 8, 4-[(4-Chlorobenzyl)oxy]-1-(4-[(1E)-3-(dimethylamino)-1-propen-1-yl]phenyl)pyridin-2(1H)-one], for which the IC50 turned out to be 1.4 nM.

On to `CO[C@H]1CCN(CCc2ccc(-n3ccc(OCc4ccc(F)cc4)cc3=O)cc2)C1` [Example 27, 4-[(4-Fluorobenzyl)oxy]-1-(4-{2-[(3S)-3-methoxypyrrolidin-1-yl]ethyl}phenyl)pyridin-2(1H)-one], for which the IC50 worked out at 5.8 nM.

Consider `O=c1cc(OCc2ccc(F)cc2)ccn1-c1ccc([C@H]2C[C@H](N3CCCC3)C2)cc1` [Example 53, 4-[(4-Fluorobenzyl)oxy]-1-[4-(trans-3-pyrrolidin-1-ylcyclobutyl)phenyl]pyridin-2(1H)-one], for which the IC50 worked out at 3.5 nM.

With `CCN(CC)CCc1ccc(-n2ccc(OCc3ccc(Cl)cn3)cc2=O)cc1` [Example 32, 4-[(5-Chloropyridin-2-yl)methoxy]-1-{4-[2-(diethylamino)ethyl]phenyl}pyridin-2(1H)-one], the IC50 stood at 6.2 nM.
